Measured values as given in the NIST ThermoML archive (doi:10.1021/acs.jced.6b00450).

Columns and labels:
[1] = refractive index (Na D-line) (dimensionless); details: 101.33 kPa, Liquid, Standard Abbe refractometry
[2] = for viscosity / mass density: 101.33 kPa, Liquid; for viscosity: Concentric cylinders viscometry; for mass density: Vibrating tube method; for Glass transition temperature: DSC; for Normal melting temperature: Crystal, DTA

CC(=O)[O-].N#CCCn1cc[nH+]c1 [1-(2-cyanoethyl)imidazolium acetate]
Details	mass density, [2] [kg/m3]	refractive index, [1]	viscosity, [2] [mPa·s]
293.15 K	1127.7	1.48534	108.22
298.15 K	–	1.48368	–
303.15 K	1120.5	1.48197	55.28
308.15 K	–	1.48025	–
313.15 K	1113	1.47851	31.57
318.15 K	–	1.4768	–
323.15 K	1105.2	1.47508	19.79
333.15 K	1097.7	–	13.32
343.15 K	1089.8	–	9.483
353.15 K	1082	–	7.118
363.15 K	1073.2	–	5.294
373.15 K	1062.2	–	4.252

Details	Glass transition temperature [°C]
[2]	-78.12

Cc1ccc(S(=O)(=O)[O-])cc1.N#CCCn1cc[nH+]c1 [1-(2-cyanoethyl)imidazolium 4-methylbenzenesulfonate]
Details	mass density, [2] [kg/m3]	refractive index, [1]	viscosity, [2] [mPa·s]
293.15 K	–	1.54509	–
298.15 K	–	1.54414	–
303.15 K	1266.3	1.54297	24795
308.15 K	–	1.54177	–
313.15 K	1259.6	1.54051	6910.9
318.15 K	–	1.53926	–
323.15 K	1253	1.53798	2376.6
333.15 K	1247.9	–	977.44
343.15 K	1241.2	–	459.63
353.15 K	1233.7	–	239.96
363.15 K	1229.1	–	138.89
373.15 K	1221.5	–	85.89

Details	Glass transition temperature [°C]
[2]	-57.34

N#CCCn1cc[nH+]c1.O=C([O-])C(F)(F)F [1-(2-cyanoethyl)imidazolium trifluoroacetate]
Details	Normal melting temperature [°C]
[2]	-13.48

N#CCCn1cc[nH+]c1.O=S(=O)([O-])C(F)(F)F [1-(2-cyanoethyl)imidazolium trifluoromethanesulfonate]
Details	Normal melting temperature [°C]
[2]	99.67

Cn1ccnc1.O=S(=O)(O)O [1-methylimidazolium hydrogen sulfate]
[1]
Details	refractive index
293.15 K	1.48955
298.15 K	1.48865
303.15 K	1.48761
308.15 K	1.48655
313.15 K	1.48552
318.15 K	1.48432
323.15 K	1.48311

[2]
Details	Glass transition temperature [°C]	Normal melting temperature [°C]
–	-73.49	20.88

CS(=O)(=O)[O-].N#CCCn1cc[nH+]c1 [1-(2-cyanoethyl)imidazolium methanesulfonate]
[1]
Details	refractive index
293.15 K	1.50224
298.15 K	1.50096
303.15 K	1.49962
308.15 K	1.49826
313.15 K	1.49686
318.15 K	1.49547
323.15 K	1.49402

Details	Glass transition temperature [°C]
[2]	-59.40

N#CCCn1cc[nH+]c1.O=S(=O)([O-])O [1-(2-cyanoethyl)imidazolium hydrogen sulfate]
Details	mass density, [2] [kg/m3]	refractive index, [1]	viscosity, [2] [mPa·s]
293.15 K	1429.4	1.5022	7937
298.15 K	–	1.50138	–
303.15 K	1423.3	1.50034	3102.2
308.15 K	–	1.49927	–
313.15 K	1417.4	1.49817	1397.9
318.15 K	–	1.49708	–
323.15 K	1411.4	1.49599	707.69
333.15 K	1405	–	394.22
343.15 K	1398.8	–	236.85
353.15 K	1393	–	151.62
363.15 K	1385.9	–	102.28
373.15 K	1378.6	–	72.1

Details	Glass transition temperature [°C]
[2]	-49.71
